According to the NIST ThermoML archive (doi:10.1016/j.fluid.2017.06.026):
Numbers after ± are expanded uncertainties.

Details: 298.15 K, Ring tensiometer

SMILES	surface tension liquid-gas [mN/m]
CCCCCOP(=O)(OCCCCC)OCCCCC [tripentyl phosphate]	26.2 ± 3
O=P(OCC(F)(F)C(F)(F)C(F)(F)C(F)F)(OCC(F)(F)C(F)(F)C(F)(F)C(F)F)OCC(F)(F)C(F)(F)C(F)(F)C(F)F [tris (1H,1H,5H-octafluoropentyl) phosphate]	22.9 ± 3
